Laboratory results: patent publication US11351274B2, “Methods of using optical agents” (MediBeacon Inc., priority 2006, dated 2022)
Read-outs that look alike come from different tables or passages of the source.

Key:
[1] = general statement in the description; cited from earlier work
[2] = Renal clearance in an intact rat (fluorescence from within the ear); type: in vivo, Sprague-Dawley rat; conditions: bolus injection into lateral tail vein, 2 ml of 0.4 mg/ml in PBS, 470 nm laser at ear
Description: (§1) Incident laser light having a wavelength of about 470 nm was delivered via a fiber optic bundle to the ear of an anesthetized intact Sprague-Dawley rat. A photodetector was used to detect fluorescence from within the ear. A background reading of fluorescence was obtained prior to administration of optical agent. A pyrazine agent (2 ml of a 0.4 mg/ml solution of 3,6-diaminopyrazine-2,5-dicarbonyl acid in PBS) was then administered to the rat by a bolus injection into the lateral tail vein.
The blood clearance time profile likely followed a two compartment pharmacokinetic model. The fluorescent signal arising from the agent concentration in the blood as a function of time was therefore fit to a double exponential decay. The equation employed to fit the data was: S=Ae^−t/τ1Be^−t/τ2+C (1) where S is the fluorescent light intensity signal measured, and t is the time point of the measurement. The decay times τ1 and τ2, and the constants A, B, and C were deduced from the fitting procedure. The non-linear regression analysis package in SigmaPiot® (Systat Software Inc., Richmond Calif.) was used to fit data to Eq. (1). In this and the following example, τ1 represents the time constant for vascular-extracellular fluid equilibrium, and T2 represents optical agent clearance from the blood.

[3] = Renal clearance in a bilaterally nephrectomized rat (fluorescence from within the ear); type: in vivo, Sprague-Dawley rat; conditions: bilaterally nephrectomized rat compared with intact rat
Description: as §1, with “An anesthetized Sprague-Dawley rat was bilaterally nephrectomized. Incident” for “Incident”, “of the” for “of an anesthetized intact Sprague-Dawley”, “of the pyrazine” for “of optical”, “agent. The” for “agent. A”, “vein. […] Specifically, the renal arteries were tied off to block blood flow to the kidneys.” for “vein.”
A comparison of clearance data from the intact rat (FIG. 1) and the bilaterally nephrectomized rat (FIG. 2) is shown in FIG. 3.

[4] = Detection of optical agent in a rat ureter by fluorescence; type: in vivo, Sprague-Dawley rat
Description: A Sprague-Dawley rat was anesthetized with a cocktail of ketamine (87 mg/kg) and xylazine (2.6 mg/kg) administered by intraperitoneal injection. After the animal had achieved the desired plane of anesthesia, a 25 gauge butterfly with 3″ tubing was placed in the lateral tail vein of the animal and flushed with saline, The rat was placed onto a heating pad and kept warm throughout the study.
An abdominal incision was made to access the ureters and expose the ureters to a laser having the appropriate wavelength to cause the optical agent employed to fluoresce. Data acquisition was initiated, and a background reading of fluorescence was obtained prior to administration of the optical agent.
The optical agent, 3,6-diaminopyrazine-2,5-dicarboxylic acid, was administered to the rat by a bolus injection into the lateral tail vein and traveled through the circulatory system and kidneys to reach the ureters. The dose of optical agent was about 2 mL of 0.4 mg/mL solution in PBS. The rat weighed approximately 250 g.
A 3 mW laser from Power Technology, Inc. (Little Rock, […].) was used to emit light into one end of a fiber optic bundle, the other end of the bundle being positioned adjacent the ureter. […] As shown in FIGS. 5-6, when the surgical field was exposed to incident light having a wavelength of about 470 nm, the optical agent within the ureters emitted fluorescent energy at a wavelength of about 530 nm. Images of the surgical field showing the fluorescing optical agent in the ureter are shown in FIGS. 5-6 (in the absence of a 500 nm long pass filter) and FIG. 7 (in the presence of a 500 nm long pass filter).

[5] = Excitation and emission wavelengths of optical agents; type: physicochemical; conditions: see Example 3 and FIG. 4
Text: In one exemplary embodiment, the optical agent is excited by light having a wavelength in the blue range of the visible portion of the electromagnetic spectrum (from about 430 nm to about 500 nm) and emits at a wavelength in the green range of the visible portion of the electromagnetic spectrum (from about 520 nm to about 565 nm). For example, fluorescein dyes can be excited with light with a wavelength of about 488 nm and have an emission wavelength of about 520 nm. As another example, 3,6-diaminopyrazine-2,5-dicarboxylic acid can be excited with light having a wavelength of about 470 nm and fluoresces at a wavelength of about 532 nm (see Example 3 and FIG. 4 herein).
In another embodiment, the excitation and emission wavelengths of the optical agent may fall in the near-infrared range of the electromagnetic spectrum. For example, indocyanine dyes, such as indocyanine green, can be excited with light with a wavelength of about 780 nm and have an emission wavelength of about 830 nm.

period over which the agent was cleared from the bloodstream [2] | route of excretion concluded from failure to clear [3] | time after intravenous administration at which fluorescence within the ureter was detected ([4]; rat, about 2 mL of 0.4 mg/mL in PBS, tail vein bolus) | fluorescence emission wavelength ([5]; excitation about 470 nm) | excitation wavelength [5] | SMILES | emission wavelength [1] | excitation wavelength [1] | fluorescence emission wavelength within the ureters ([4]; incident light of about 470 nm, in vivo in rat ureter) | localisation of fluorescence in the surgical field ([4]; rat, ureter versus surrounding tissue)
– | – | – | – | – | CC1(C)C(/C=C/C=C/C=C/C=C2\N(CCCCS(=O)(=O)O)c3ccc4ccccc4c3C2(C)C)=[N+](CCCCS(=O)(=O)[O-])c2ccc3ccccc3c21 [indocyanine green] | about 830 nm | about 780 nm | – | –
slightly over twenty | renally excretable | about 40 minutes | about 532 nm | about 470 nm | Nc1nc(C(=O)O)c(N)nc1C(=O)O [3,6-diaminopyrazine-2,5-dicarboxylic acid] | – | – | about 530 nm | only observed from the ureter and not from any surrounding tissue
